According to the NIST ThermoML archive (doi:10.1021/je400134d):

Test: xn = mol fraction of the nth substance listed
Settings: 100 kPa, Liquid; for speed of sound: Pulse-echo method; for mass density: Vibrating tube method

CNc1ccccc1 [N-methylaniline] + Cc1ccccc1
Settings | mass density [kg/m3] | speed of sound [m/s]
293.15 K, x1 = 0.0541 | 873.9 | 1339.3
293.15 K, x1 = 0.0986 | 879.611 | 1350.5
293.15 K, x1 = 0.1502 | 886.145 | 1363.2
293.15 K, x1 = 0.1989 | 892.268 | 1375.1
293.15 K, x1 = 0.2473 | 898.297 | 1387
293.15 K, x1 = 0.2982 | 904.623 | 1399.7
293.15 K, x1 = 0.35 | 910.972 | 1412.6
293.15 K, x1 = 0.3898 | 915.862 | 1422.7
293.15 K, x1 = 0.446 | 922.654 | 1436.8
293.15 K, x1 = 0.4872 | 927.615 | 1447.3
293.15 K, x1 = 0.5426 | 934.227 | 1461.5
293.15 K, x1 = 0.5859 | 939.349 | 1472.7
293.15 K, x1 = 0.6441 | 946.179 | 1487.8
293.15 K, x1 = 0.6894 | 951.429 | 1499.7
293.15 K, x1 = 0.7385 | 957.096 | 1512.7
293.15 K, x1 = 0.7823 | 962.1 | 1524.3
293.15 K, x1 = 0.8377 | 968.392 | 1539.6
293.15 K, x1 = 0.8834 | 973.522 | 1551.3
293.15 K, x1 = 0.9299 | 978.698 | 1563.7
298.15 K, x1 = 0.0532 | 869.146 | 1317.9
298.15 K, x1 = 0.0998 | 875.098 | 1329.6
298.15 K, x1 = 0.1518 | 881.77 | 1342.7
298.15 K, x1 = 0.1906 | 886.675 | 1352.4
298.15 K, x1 = 0.2452 | 893.525 | 1366
298.15 K, x1 = 0.2887 | 898.955 | 1377
298.15 K, x1 = 0.3417 | 905.492 | 1390.3
298.15 K, x1 = 0.39 | 911.437 | 1402.7
298.15 K, x1 = 0.4434 | 917.945 | 1416.3
298.15 K, x1 = 0.49 | 923.58 | 1428.3
298.15 K, x1 = 0.5415 | 929.747 | 1441.7
298.15 K, x1 = 0.5792 | 934.236 | 1451.5
298.15 K, x1 = 0.6432 | 941.787 | 1468.4
298.15 K, x1 = 0.6868 | 946.88 | 1479.9
298.15 K, x1 = 0.7407 | 953.128 | 1494.3
298.15 K, x1 = 0.7823 | 957.907 | 1505.4
298.15 K, x1 = 0.8378 | 964.233 | 1520.4
298.15 K, x1 = 0.8844 | 969.501 | 1533
298.15 K, x1 = 0.934 | 975.057 | 1546.4
303.15 K, x1 = 0.053 | 864.574 | 1297.3
303.15 K, x1 = 0.0982 | 870.409 | 1308.8
303.15 K, x1 = 0.1501 | 877.091 | 1321.9
303.15 K, x1 = 0.1929 | 882.501 | 1332.7
303.15 K, x1 = 0.2456 | 889.168 | 1346.1
303.15 K, x1 = 0.2837 | 893.953 | 1355.7
303.15 K, x1 = 0.3444 | 901.518 | 1371.2
303.15 K, x1 = 0.3919 | 907.37 | 1383.4
303.15 K, x1 = 0.4478 | 914.21 | 1397.8
303.15 K, x1 = 0.4918 | 919.549 | 1409.3
303.15 K, x1 = 0.5391 | 925.243 | 1421.7
303.15 K, x1 = 0.5886 | 931.18 | 1434.7
303.15 K, x1 = 0.6395 | 937.212 | 1448.2
303.15 K, x1 = 0.6846 | 942.503 | 1460.2
303.15 K, x1 = 0.7398 | 948.933 | 1475
303.15 K, x1 = 0.7782 | 953.381 | 1485.3
303.15 K, x1 = 0.842 | 960.67 | 1502.3
303.15 K, x1 = 0.879 | 964.897 | 1512.7
303.15 K, x1 = 0.934 | 971.087 | 1527.6

CNc1ccccc1 [N-methylaniline] + CCCCCCC
Settings | mass density [kg/m3] | speed of sound [m/s]
293.15 K, x1 = 0.054 | 695.999 | 1164.1
293.15 K, x1 = 0.1084 | 708.778 | 1177.2
293.15 K, x1 = 0.1536 | 719.814 | 1188.4
293.15 K, x1 = 0.2 | 731.341 | 1200
293.15 K, x1 = 0.2556 | 745.704 | 1214.5
293.15 K, x1 = 0.2976 | 756.81 | 1226.1
293.15 K, x1 = 0.3473 | 770.261 | 1240.6
293.15 K, x1 = 0.3944 | 783.41 | 1255.2
293.15 K, x1 = 0.4485 | 798.879 | 1273.5
293.15 K, x1 = 0.4953 | 812.615 | 1291
293.15 K, x1 = 0.5355 | 824.725 | 1306.9
293.15 K, x1 = 0.599 | 844.458 | 1335
293.15 K, x1 = 0.6436 | 858.711 | 1356.6
293.15 K, x1 = 0.7024 | 878.07 | 1387.7
293.15 K, x1 = 0.7457 | 892.769 | 1412.5
293.15 K, x1 = 0.7858 | 906.675 | 1436.7
293.15 K, x1 = 0.8459 | 928.153 | 1474.7
293.15 K, x1 = 0.8952 | 946.22 | 1507.9
293.15 K, x1 = 0.9491 | 966.608 | 1545.5
298.15 K, x1 = 0.0577 | 692.58 | 1143.9
298.15 K, x1 = 0.1072 | 704.27 | 1156.2
298.15 K, x1 = 0.1473 | 713.999 | 1166.3
298.15 K, x1 = 0.2055 | 728.558 | 1181.4
298.15 K, x1 = 0.2595 | 742.491 | 1193.9
298.15 K, x1 = 0.3033 | 754.107 | 1208.3
298.15 K, x1 = 0.3401 | 764.024 | 1219.2
298.15 K, x1 = 0.3955 | 779.471 | 1236.7
298.15 K, x1 = 0.4559 | 796.765 | 1257.6
298.15 K, x1 = 0.503 | 810.692 | 1275.5
298.15 K, x1 = 0.5431 | 822.843 | 1291.9
298.15 K, x1 = 0.5956 | 839.178 | 1315.3
298.15 K, x1 = 0.6441 | 854.671 | 1338.8
298.15 K, x1 = 0.6995 | 872.931 | 1368.1
298.15 K, x1 = 0.7491 | 889.715 | 1396.2
298.15 K, x1 = 0.7964 | 906.279 | 1425.1
298.15 K, x1 = 0.8446 | 923.55 | 1455.9
298.15 K, x1 = 0.8949 | 942.036 | 1489.6
298.15 K, x1 = 0.9465 | 961.528 | 1525.6
303.15 K, x1 = 0.0615 | 689.386 | 1124.9
303.15 K, x1 = 0.1111 | 701.082 | 1137.5
303.15 K, x1 = 0.1548 | 711.723 | 1148.8
303.15 K, x1 = 0.2069 | 724.76 | 1162.6
303.15 K, x1 = 0.2501 | 735.88 | 1174.4
303.15 K, x1 = 0.2964 | 748.035 | 1187.5
303.15 K, x1 = 0.348 | 762.057 | 1203.2
303.15 K, x1 = 0.3979 | 775.964 | 1219.2
303.15 K, x1 = 0.4513 | 791.356 | 1238
303.15 K, x1 = 0.5003 | 805.793 | 1256.5
303.15 K, x1 = 0.5583 | 823.48 | 1280.8
303.15 K, x1 = 0.5988 | 836.196 | 1299.2
303.15 K, x1 = 0.647 | 851.618 | 1322.6
303.15 K, x1 = 0.7026 | 869.963 | 1351.9
303.15 K, x1 = 0.7475 | 885.221 | 1377.4
303.15 K, x1 = 0.7954 | 901.919 | 1406.3
303.15 K, x1 = 0.8446 | 919.525 | 1437.5
303.15 K, x1 = 0.8917 | 936.846 | 1468.8
303.15 K, x1 = 0.9404 | 955.244 | 1502.4
